From article PMC12434071, “Platinum-group metal half-sandwich complexes of 1-(α-D-glucopyranosyl)-4-hetaryl-1,2,3-triazoles: synthesis, solution equilibrium studies, and investigation of their anticancer and antimicrobial activities” (Frontiers in Chemistry, 2025)

Key:
[1] = system: ID8 cells; assay: SRB assay on ID8 cells; format: cell-based; details: maximal inhibition; 48 h treatment; maximum concentration 100 µM
Method: FIGURE 7 The ruthenium, osmium, and iridium complexes of ligands 4a, 4b, and 5a are cytostatic on ovarian cancer models with a good therapeutic index. For SRB assays, 1.5 × 10^3 A2780 cells, 1.5 × 10^3 ID8 cells, or 4 × 10^3 primary fibroblasts were plated into 96-well plates. Cells were treated with the compounds in the concentrations indicated for 48 h. Data are represented as average ± SD, from four biological replicates on A2780 and human primary fibroblasts, except in the case of Os complexes, where experiments were performed in three biological replicates. ID8 cells were assessed in three biological replicates. Individual assays were performed in duplicate. Values were normalized for vehicle-treated cells, and the absorbance for vehicle-treated cells equals 1. Normality was assessed using the D’Agostino–Pearson test. Statistical significance was assessed using a two-way ANOVA test followed by Tukey’s post hoc test. For better visibility, normality, transformations, statistical tests, and p values are presented in an MS Excel sheet at https://figshare.com/s/3a0aa60b66f3f746f41e. Color code: black—free ligand (4a,b or 5a), khaki—ruthenium complex (Ru-4a,b), blue—osmium complex (Os-4a,b or Os-5a), green—iridium complex (Ir-4a,b), and red—rhodium complex (Rh-4a,b). An SRB assay measures protein content of cells in correlation with the cell number in an assay well and can therefore be used to assess cell proliferation or long-term cytostasis ([Skehan et al., 1990]). Cells were seeded into 96-well plates the day before the treatment for the assay. Cells were treated with the various compounds for 48 h. Then, the medium was removed, and cells were fixed with 10% trichloroacetic acid. Fixed cells were washed in distilled water three times, followed by staining with SRB (0.4 m/V% dissolved in 1% acetic acid) for 10 min. Stained cells were washed in 1% acetic acid five times; the acetic acid was removed, and the cells were left to dry. […] Plates were measured in a plate photometer (Thermo Scientific Multiscan GO spectrophotometer, Waltham, MA, United States) at 540 nm. […]

[2] = system: A2780 cells; assay: MTT reduction assay on A2780 cells; format: cell-based; details: maximal inhibition; 4 h treatment; maximum concentration 100 µM
Method: For MTT assays, 4 × 10^3 A2780 cells were plated into 96-well plates, and for SRB assays, 1.5 × 10^3 A2780 cells were plated into 96-well plates. Cells were treated with the compounds in the concentrations indicated for either 4 h for an MTT assay or for 48 h for an SRB assay. Data are represented as average ± SD, from four biological replicates, with the exception of the MTT dataset of Ir-2b and the SRB datasets of 2b, Ru/Ir-2b, and Ir-3a, which were derived from three biological replicates. Individual assays were performed in duplicate. Values were normalized for vehicle-treated cells, and the absorbance for vehicle-treated cells equals 1. Data are represented as fold change compared to vehicle-treated controls. Normality was assessed using the D'Agostino-Pearson test. Statistical significance was assessed using a two-way ANOVA test followed by Tukey's post hoc test. For better visibility, normality, transformations, statistical tests, and p values are presented in an MS Excel sheet at https://figshare.com/s/3a0aa60b66f3f746f41e. Color code: black-free ligand (2a,b or 3a), khaki-ruthenium complex (Ru-2a,b or Ru-3a), green-iridium complex (Ir-2a,b or Ir-3a).  FIGURE 5 The ruthenium, osmium, and iridium complexes of ligands 4a, 4b, and 5a decrease MTT reduction. For MTT assays, 4 × 10^3 A2780 cells, 3 × 10^3 ID8 cells, or 6 × 10^3 human primary fibroblasts were plated into 96-well plates. Cells were treated with the compounds in the concentrations indicated for 4 h. Data are represented as average ± SD, from four biological replicates on A2780, and from three biological replicates on ID8 and human primary fibroblasts. For the datasets of 5a and Os-5a on human primary fibroblasts, the data represent four biological replicates. Individual assays were performed in duplicate. Values were normalized for vehicle-treated cells, and the absorbance for vehicle-treated cells equals 1. Normality was assessed using the D'Agostino-Pearson test. Statistical significance was assessed using a two-way ANOVA test followed by Tukey's post hoc test. For better visibility, normality, transformations, statistical tests, and p values are presented in an MS Excel sheet at https://figshare.com/s/3a0aa60b66f3f746f41e. Color code: black-free ligand (4a,b or 5a), khaki-ruthenium complex (Ru-4a,b), green-iridium complex (Ir-4a,b), blue-osmium complex (Os-4a,b or Os-5a), and red-rhodium complex (Rh-4a,b). An MTT reduction assay measures the activity of mitochondrial complex I and can be used to detect toxicity ([[…] et al., 2016]). The assay was performed in a manner similar to that described by [[…] et al. (2023b)]. Briefly, cells were plated into 96-well plates the day before the assay. Cells were treated with the compounds for 4 h; then, MTT was added to a 0.5 mg/mL final concentration, and cells were incubated at 37°C in a cell incubator for 40-60 min, as a function of the cell line being assessed. The culture medium was removed, the reduced MTT dye was dissolved in dimethylsulfoxide, and plates were measured in a plate photometer (Thermo Scientific Multiscan GO spectrophotometer, Waltham, MA, United States) at 540 nm. Certain wells were designated to contain vehicle-treated cells on each plate. In calculations, the readings for these wells were considered to 1, and all readings were expressed relative to these values. Statistical analysis was performed using version 8.0.1 of GraphPad Prism. Values were tested for normal distribution using the D'Agostino-Pearson or Shapiro-Wilk normality tests. When necessary, values were log-normalized or normalized using the Box-Cox or two-step normalization method ([Box and Cox, 1964]), as indicated in the MS Excel file listing the values at https://figshare.com/s/3a0aa60b66f3f746f41e. The following statistical test, post hoc test, and the level of significance are indicated in the MS Excel file listing the values at https://figshare.com/s/3a0aa60b66f3f746f41e. […]

SMILES | ID8 SRB max % [1] | A2780 MTT max % [2]
O=C(OC[C@H]1O[C@H](n2cc(-c3ccc4ccccc4n3)nn2)[C@H](OC(=O)c2ccccc2)[C@@H](OC(=O)c2ccccc2)[C@@H]1OC(=O)c1ccccc1)c1ccccc1 [Complex 4b, 1-(2’,3’,4’,6’-Tetra-O-benzoyl-α-D-glucopyranosyl)-4-(quinolin-2-yl)-1,2,3-triazole] | 0% | 0%
OC[C@H]1O[C@H](n2cc(-c3ccccn3)nn2)[C@H](O)[C@@H](O)[C@@H]1O [Complex 3a, 1-(α-D-Glucopyranosyl)-4-(pyridin-2-yl)-1,2,3-triazole] |  | 0%
CCCCC(=O)OC[C@H]1O[C@H](n2cc(-c3ccccn3)nn2)[C@H](OC(=O)CCCC)[C@@H](OC(=O)CCCC)[C@@H]1OC(=O)CCCC [Complex 5a, 1-(2’,3’,4’,6’-Tetra-O-pentanoyl-α-D-glucopyranosyl)-4-(pyridin-2-yl)-1,2,3-triazole] | 0% | 0%
O=C(OC[C@H]1O[C@H](n2cc(-c3ccccn3)nn2)[C@H](OC(=O)c2ccccc2)[C@@H](OC(=O)c2ccccc2)[C@@H]1OC(=O)c1ccccc1)c1ccccc1 [Complex 4a, 1-(2’,3’,4’,6’-Tetra-O-benzoyl-α-D-glucopyranosyl)-4-(pyridin-2-yl)-1,2,3-triazole] | 0% | 0%
